As usually defined, the remaining activity is the signal under treatment as a percentage of the control signal.

Structures are written as SMILES. Like-named read-outs stand apart in the source and are kept apart here.

The results in this text go back to article PMC4579270, “Identification and Characterization of an Irreversible Inhibitor of CDK2” (Chemistry & Biology, 2015).

What all share (test): Dundee kinase screen re-test (standard format and 4 hour pre-incubation)
Holding throughout (format): biochemical

For one experiment, the target named is T1, ERK8 (Homo sapiens, UniProt Q8TD08).
T1 sequence (Q8TD08 1-544): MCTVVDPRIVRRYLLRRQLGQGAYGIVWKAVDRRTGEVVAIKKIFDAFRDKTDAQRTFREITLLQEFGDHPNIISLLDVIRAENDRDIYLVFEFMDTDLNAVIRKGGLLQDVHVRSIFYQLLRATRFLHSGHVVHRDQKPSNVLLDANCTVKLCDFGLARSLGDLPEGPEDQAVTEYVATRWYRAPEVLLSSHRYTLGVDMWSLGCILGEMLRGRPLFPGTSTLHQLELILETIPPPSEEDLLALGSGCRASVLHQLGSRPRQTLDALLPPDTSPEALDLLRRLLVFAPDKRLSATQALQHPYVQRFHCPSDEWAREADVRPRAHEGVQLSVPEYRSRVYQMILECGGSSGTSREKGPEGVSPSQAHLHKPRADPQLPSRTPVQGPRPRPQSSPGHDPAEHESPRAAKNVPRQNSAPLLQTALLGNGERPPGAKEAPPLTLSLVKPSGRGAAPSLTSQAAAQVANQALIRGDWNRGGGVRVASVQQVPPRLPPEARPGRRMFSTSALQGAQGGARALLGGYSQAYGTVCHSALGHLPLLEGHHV
Conditions: ERK8, 0.5µM. The procedure, abridged:
(§1)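 Selectivity panel of 131 protein kinases, inhibitor tested at a single concentration of 1 µM; values are % kinase activity remaining, mean of duplicates. Re-test of selected kinases used 0.5 µM in the standard format and again after a 4 hour pre-incubation with the inhibitor.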

The next experiment concerns the target GSK3b (Homo sapiens, UniProt P49841). In a few lines: as §1
In another experiment the target is IRR (Homo sapiens, UniProt P14616). In a few lines: as §1
Chain of IRR (P14616 27-1297): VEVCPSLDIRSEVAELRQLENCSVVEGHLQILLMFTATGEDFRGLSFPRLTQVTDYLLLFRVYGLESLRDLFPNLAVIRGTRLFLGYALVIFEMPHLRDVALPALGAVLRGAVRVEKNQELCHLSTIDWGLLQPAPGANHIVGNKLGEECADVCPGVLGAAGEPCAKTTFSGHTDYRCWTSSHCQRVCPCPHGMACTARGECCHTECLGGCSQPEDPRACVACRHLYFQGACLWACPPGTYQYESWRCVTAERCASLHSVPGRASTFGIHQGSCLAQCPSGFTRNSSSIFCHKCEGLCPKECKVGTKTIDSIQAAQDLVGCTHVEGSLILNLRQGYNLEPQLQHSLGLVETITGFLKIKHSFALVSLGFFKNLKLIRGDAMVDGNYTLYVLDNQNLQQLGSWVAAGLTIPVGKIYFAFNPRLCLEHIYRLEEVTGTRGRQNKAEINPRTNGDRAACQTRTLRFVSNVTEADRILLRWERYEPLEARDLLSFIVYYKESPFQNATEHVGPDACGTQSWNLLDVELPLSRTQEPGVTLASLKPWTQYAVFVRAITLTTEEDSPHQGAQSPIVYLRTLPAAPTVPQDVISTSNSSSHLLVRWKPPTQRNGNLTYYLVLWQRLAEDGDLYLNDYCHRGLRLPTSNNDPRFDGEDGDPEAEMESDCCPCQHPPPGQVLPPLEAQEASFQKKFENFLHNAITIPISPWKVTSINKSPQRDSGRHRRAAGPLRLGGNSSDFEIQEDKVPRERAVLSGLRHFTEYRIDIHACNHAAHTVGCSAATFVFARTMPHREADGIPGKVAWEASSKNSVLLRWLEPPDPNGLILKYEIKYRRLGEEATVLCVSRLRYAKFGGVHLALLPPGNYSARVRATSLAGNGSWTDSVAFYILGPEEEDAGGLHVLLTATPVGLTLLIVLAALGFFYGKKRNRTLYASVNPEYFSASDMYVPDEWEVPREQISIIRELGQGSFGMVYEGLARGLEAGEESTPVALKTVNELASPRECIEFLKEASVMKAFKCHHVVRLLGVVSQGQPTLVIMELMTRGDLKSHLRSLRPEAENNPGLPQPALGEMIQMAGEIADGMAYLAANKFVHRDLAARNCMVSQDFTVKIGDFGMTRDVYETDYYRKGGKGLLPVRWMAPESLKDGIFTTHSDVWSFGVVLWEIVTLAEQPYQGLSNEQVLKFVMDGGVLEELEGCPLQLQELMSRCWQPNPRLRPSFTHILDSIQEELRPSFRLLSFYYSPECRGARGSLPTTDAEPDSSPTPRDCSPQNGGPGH
For a further experiment, the target named is T2, MARK4 (Homo sapiens, UniProt Q96L34).
T2 sequence (Q96L34 1-752): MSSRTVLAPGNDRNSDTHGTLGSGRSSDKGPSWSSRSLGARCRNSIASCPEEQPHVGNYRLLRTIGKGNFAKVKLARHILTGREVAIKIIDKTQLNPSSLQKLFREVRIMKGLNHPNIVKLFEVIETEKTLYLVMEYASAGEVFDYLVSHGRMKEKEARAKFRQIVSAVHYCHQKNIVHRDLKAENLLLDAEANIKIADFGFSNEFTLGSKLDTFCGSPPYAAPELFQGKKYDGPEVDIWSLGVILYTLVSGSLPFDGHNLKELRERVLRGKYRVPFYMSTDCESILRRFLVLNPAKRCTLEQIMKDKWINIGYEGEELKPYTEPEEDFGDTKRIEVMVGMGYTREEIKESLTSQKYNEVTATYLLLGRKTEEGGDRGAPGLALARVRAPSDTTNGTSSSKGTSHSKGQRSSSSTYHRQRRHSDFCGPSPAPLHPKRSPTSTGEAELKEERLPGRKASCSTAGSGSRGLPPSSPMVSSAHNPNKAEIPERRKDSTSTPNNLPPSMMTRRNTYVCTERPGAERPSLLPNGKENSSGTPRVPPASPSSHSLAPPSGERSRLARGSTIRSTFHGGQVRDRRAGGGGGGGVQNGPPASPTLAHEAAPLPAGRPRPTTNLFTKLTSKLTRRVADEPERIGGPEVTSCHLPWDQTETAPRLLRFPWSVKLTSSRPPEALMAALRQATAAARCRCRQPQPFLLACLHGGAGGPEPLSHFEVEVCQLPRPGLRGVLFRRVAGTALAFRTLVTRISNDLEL
Conditions: MARK4, 0.5µM. In a few lines: as §1

The target in another experiment is MST4 (Homo sapiens, UniProt Q9P289). Conditions: MST4, 0.5µM. In a few lines: as §1
Chain of MST4 (Q9P289 whole entry): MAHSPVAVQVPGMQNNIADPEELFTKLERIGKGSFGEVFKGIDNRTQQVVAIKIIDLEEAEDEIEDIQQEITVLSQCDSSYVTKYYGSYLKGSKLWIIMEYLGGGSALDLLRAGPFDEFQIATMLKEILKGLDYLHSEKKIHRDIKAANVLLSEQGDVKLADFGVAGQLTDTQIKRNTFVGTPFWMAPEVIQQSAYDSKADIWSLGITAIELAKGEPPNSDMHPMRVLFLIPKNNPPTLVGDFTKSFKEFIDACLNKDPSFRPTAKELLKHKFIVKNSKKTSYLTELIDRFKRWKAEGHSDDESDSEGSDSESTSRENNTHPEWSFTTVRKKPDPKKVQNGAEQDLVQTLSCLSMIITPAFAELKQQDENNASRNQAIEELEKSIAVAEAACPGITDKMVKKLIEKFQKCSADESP
The target of a further experiment is YES1 (Homo sapiens, UniProt P07947). Conditions: YES1, 0.5µM. In a few lines:
as §1

The mark [1] stands for this setting: 4hr RT preincubation, read-out: %Remaining activity at 0.5µM NU6300 - 4hr RT preincubation.
Setting [2] is: usual format, read-out: %Remaining activity at 0.5µM NU6300 - Usual assay format.

Chain of GSK3b (P49841 whole entry): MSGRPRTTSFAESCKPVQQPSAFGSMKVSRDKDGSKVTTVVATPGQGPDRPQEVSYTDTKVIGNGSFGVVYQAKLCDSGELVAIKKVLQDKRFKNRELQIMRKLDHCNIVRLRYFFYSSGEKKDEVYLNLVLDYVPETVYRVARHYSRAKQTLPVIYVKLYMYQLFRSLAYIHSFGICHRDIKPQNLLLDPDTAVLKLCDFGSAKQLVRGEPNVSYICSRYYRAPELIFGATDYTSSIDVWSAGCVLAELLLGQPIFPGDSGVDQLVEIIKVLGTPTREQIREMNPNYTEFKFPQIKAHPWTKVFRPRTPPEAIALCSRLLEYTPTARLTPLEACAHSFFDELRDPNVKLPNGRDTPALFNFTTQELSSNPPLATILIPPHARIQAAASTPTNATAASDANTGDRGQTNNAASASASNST
Chain of YES1 (P07947 whole entry): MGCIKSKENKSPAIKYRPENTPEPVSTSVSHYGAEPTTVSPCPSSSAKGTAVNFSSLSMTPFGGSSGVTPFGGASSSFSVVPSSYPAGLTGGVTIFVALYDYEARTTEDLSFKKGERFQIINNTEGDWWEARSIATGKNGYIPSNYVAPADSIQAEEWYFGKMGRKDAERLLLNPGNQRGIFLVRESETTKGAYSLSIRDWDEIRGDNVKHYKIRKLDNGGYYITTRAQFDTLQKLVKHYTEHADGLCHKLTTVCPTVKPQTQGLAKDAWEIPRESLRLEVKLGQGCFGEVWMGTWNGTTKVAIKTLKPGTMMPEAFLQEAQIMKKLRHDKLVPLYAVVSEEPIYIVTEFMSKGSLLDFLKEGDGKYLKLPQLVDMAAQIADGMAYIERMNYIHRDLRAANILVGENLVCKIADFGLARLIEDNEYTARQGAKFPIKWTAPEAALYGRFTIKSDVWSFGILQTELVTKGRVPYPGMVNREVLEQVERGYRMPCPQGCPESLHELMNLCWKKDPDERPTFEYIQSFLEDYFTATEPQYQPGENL

On to `C=CS(=O)(=O)c1ccc(Nc2nc(OCC3CCCCC3)c3nc[nH]c3n2)cc1` [NU6300, 6-(cyclohexylmethoxy)-N-(4-(vinylsulfonyl)phenyl)-9H-purin-2-amine], for which the remaining activity at 0.5 µM was 68% on ERK8 (setting [1]); 20% at ERK8 (setting [2]); 81% on GSK3b (setting [1]); 80% on GSK3b (setting [2]); 45% on IRR (setting [1]); 73% at IRR (setting [2]). Further, the remaining activity at 0.5 µM on MARK4 (setting [1]) was 52%; on MARK4 (setting [2]), 47%; on MST4 (setting [1]) it was 94%; at MST4 (setting [2]), 74%; on YES1 (setting [1]) it was 135%; on YES1 (setting [2]), 43%.
